This is an account of results in US20150305333A1, “USE OF GLUCOSAMINE AMIDES AS PLANT GROWTH AND YIELD ENHANCERS” (PIONEER HI-BRED INTERNATIONAL, INC., priority 2012, published 2015).

The test system of the test is corn seeds. The experiment in a line: Petri dish seed germination assay, corn. In kind it is in vivo. On the procedure:
A series of Petri dish seed assays was conducted to evaluate the effects NPG on the seed germination rates of corn, soybean, and canola seeds subjected to cold stress, salt stress and non-stressed conditions (salt stress only for canola). Assays were performed with ten replications of ten seeds/plate (100 total seeds). NPG was applied to seeds at the specified concentrations prior to being placed in Petri plates. Seeds designated for Salt Stress Experiments 1 & 2 were placed in Petri dishes containing a 100 mM NaCl solution and incubated at 21° C.-22° C. in the dark. Cold stress Petri dishes were incubated at 15° C. in the dark. Untreated Controls were incubated at 21° C.-22° C. in the dark as were seeds utilized in the separately conducted non-stressed germination assays. Data was recorded as percent germination at designated times after plating. Statistical analyses were performed using one-way Anova and Kruskal-Wallis one-way analysis of variance on rank combined with Dunn's all pairwise multiple comparison procedure (α=0.05).

Turning to “Methyl 2-deoxy-2-N-(hexadece-9,10-cis-eneoyl)-β-D-glucopyranoside [NPG]”, the “Corn Seed Germination” value stood at 34a % (Salt Stress (100 mM NaCl) Experiment 1, 10^−6M, 30 HAP); 83a % (Salt Stress (100 mM NaCl) Experiment 1, 10^−6M, 40 HAP); 96a % (Salt Stress (100 mM NaCl) Experiment 1, 10^−6M, 48 HAP); 23a % (Salt Stress (100 mM NaCl) Experiment 1, 10^−7M, 30 HAP); 68a % (Salt Stress (100 mM NaCl) Experiment 1, 10^−7M, 40 HAP); 91a % (Salt Stress (100 mM NaCl) Experiment 1, 10^−7M, 48 HAP).
